The source of these data is patent US11273142B2, “Treatment for tumors driven by metabolic dysfunction” (SynDevRx, Inc., priority 2016, dated 2022).

Series [1] relates to B16F10 melanoma. In words: B16F10 melanoma tumor growth in obese (DIO) and lean mice. Conditions: 2 mg/kg SC Q2D. The class given is in vivo, C57BL/6 male mice. The source says: The study would compare weight changes in both obese and lean animal groups; measure biologic changes in hematology parameters; and compare conjugate molecules of the present disclosure against related small molecules for efficacy.
(§1) C57BL/6 male mice were ad libitum fed TD.06414 a high fat diet (HFD) composed of 60% Kcal from fat (DIO) for 12-14 weeks, until average body weight of the obese mice was >40 g. Age-matched C57Bl/6 male mice were maintained on a normal rodent diet (10% fat, low-fat diet, LFD) for 12-14 weeks. The study was initiated by injecting 2×10^5 B16F10 melanoma cells into the flank of both lean and obese animals.
(§2) The mice were treated with 5% mannitol/water (vehicle control), Compound 1 or Compound 4 once tumors had reached >100 mm^3. Treatment was via subcutaneous, intra-scapular injection at 5 ml/kg every four days (compound 1) or every 2 days (compound 4) over a 17 day period at the doses and on the schedule shown in Table 2.

Series [2] is described as follows: Body weight of B16F10 tumor-bearing obese and lean mice. The class given is in vivo, C57BL/6 male mice. To be noted: 2 mg/kg SC Q2D. The method, then:
as §1, §2

The test system of series [3] is B16F10 melanoma. In words: Metastatic lung lesions in B16F10 melanoma/DIO mice. The class given is in vivo, C57BL/6 male mice. Conditions: Obese Mice; 2 mg/kg. The method, then:
as §1, §2

Series [4] is described as follows: Adipose tissue mass in mice bearing B16F10 melanoma. It counts as in vivo, C57BL/6 male mice. To be noted: 2 mg/kg. How it is done: as §1
Treatment was via subcutaneous, intra-scapular injection at 5 ml/kg every four days (compound 1) or every 2 days (compound 4) over a 17 day period at the doses and on the schedule shown in Table 2.

The conditions of series [5]: every fourth day schedule; limited by confusion and insomnia; cited from earlier work.
For series [6] the following is noted: cited from earlier work.
The conditions of series [7]: SD rats; 5 mg/kg/day (Kim et al.); cited from earlier work.
A short description of a further series: NOAEL in dog. Conditions: in vivo, after 0.5 mg/kg COMPOUND 1.
Another series in a line: NOAEL in rat. Conditions: in vivo, after 3 mg/kg COMPOUND 1.
Another series has as its system CYP3A 4 & 5. As to the kind of experiment: CYP3A4/5 substrate status. It counts as in vitro ADME.
The conditions of series [8]: in combination with paclitaxel; dosed three times per week; cited from earlier work.

Where two headings read alike, the source gives them in different places.

As to `COC1C(OC(=O)/C=C/c2ccc(OCCN(C)C)cc2)CC[C@]2(CO2)C1[C@@]1(C)O[C@@H]1CC=C(C)C` (stereo partly drawn) [Compound 4], the “effect on tumor growth” value in the series with B16F10 melanoma [1] (lean mice) is reported as “no effect on tumor growth”. Also, the “inhibition of growth of tumors” value with B16F10 melanoma [1] (obese mice) amounted to 28%. In series [2] (lean mice), the “effect on body weight” value is given as “no effect on body weight”. In addition, in [2] (obese mice), the “change in body weight” value is −7.9%. Besides, the “number of metastatic lung lesions, mean +/- SEM” value with B16F10 melanoma [3] is given as 2.4+/−0.8 lesions/mouse. In addition, the results for the “Tissue Weight, Epididymal Fat” value in series [4] (Lean Mice) and in series [4] (Obese Mice) were 0.134 g and 0.424 g, respectively. The figures for the “Tissue Weight, Inguinal Fat” value in [4] (Lean Mice) and in [4] (Obese Mice) were 0.208 g and 0.416 g, respectively. Moreover, the “Tissue Weight, Retroperitoneal Fat” value in series [4] (Lean Mice) is 0.029 g; in series [4] (Obese Mice), 0.142 g. Further, in series [5], the MTD was 15 mg/m2/day. In addition, the body weight effect entry in series [6] (C57BL/6J mice, 5 mg/kg/day (Kim et al.)) was “weight loss”; in series [6] (DIO mice, dosed at 1 mg/kg (Hughes et al.)) it was “efficacious in eliciting weight loss”; in [7] it was “weight loss”.
With `COC1C(OC(=O)N[C@H]2CC[C@H](N)CC2)CC[C@]2(CO2)C1[C@@]1(C)O[C@@H]1CC=C(C)C` (stereo partly drawn) [Compound 5], in the series “NOAEL in dog”, the AUC worked out at 20.7 ng·h/mL and the highest level (Cmax) was 0.4 ng/mL. In the series “NOAEL in rat”, this compound gave an AUC of 23.3 ng·h/mL and a Cmax of 1.5 ng/mL. Moreover, in the series on CYP3A 4 & 5, the “CYP3A 4 & 5 substrate” value is on record as “substrate”.
Consider `CO[C@@H]1[C@H](OC(=O)NC(=O)CCl)CC[C@]2(CO2)[C@H]1[C@@]1(C)O[C@@H]1CC=C(C)C` [TNP-470, chloroacetylcarbamoylfumagillol], for which the obesity prevention result in series [6] (mice, 15 or 20 mg/kg every other day (Brakenhielm)) was “prevention of obesity”. Further, the body weight effect entry in series [6] (ob/ob mice, daily doses 2.5 mg/kg to 10 mg/kg (Rupnick et al.)) is on record as “weight loss”. In addition, in series [8], the MTD is 60 mg/m2.
Take `CO[C@@H]1[C@H](OC(=O)/C=C/C=C/C=C/C=C/C(=O)O)CC[C@]2(CO2)[C@H]1[C@@]1(C)O[C@@H]1CC=C(C)C` [fumagillin]: in [6] (C57BL/6 mice, oral 1 mg/kg daily (Lijnen et al.)), the body weight effect result is “weight loss”.

In general, AUC refers to the area under the concentration-time curve, a measure of exposure. Lower therefore signals low exposure. As usually defined, the Cmax is the maximum level reached in the sampled fluid or tissue.
